Assay results as given in ChEMBL document CHEMBL1145498, “A systematic interaction map of validated kinase inhibitors with Ser/Thr kinases” (Proc Natl Acad Sci U S A, 2007).

How the values were obtained:
[1] = target: Serine/threonine-protein kinase pim-2 (Homo sapiens, UniProt Q9P1W9)
[2] = target: Mitogen-activated protein kinase 6 (Homo sapiens) (UniProt Q16659)
[3] = target: T1, Mitogen-activated protein kinase kinase kinase 5 (Homo sapiens) (UniProt Q99683)
T1 sequence (whole entry): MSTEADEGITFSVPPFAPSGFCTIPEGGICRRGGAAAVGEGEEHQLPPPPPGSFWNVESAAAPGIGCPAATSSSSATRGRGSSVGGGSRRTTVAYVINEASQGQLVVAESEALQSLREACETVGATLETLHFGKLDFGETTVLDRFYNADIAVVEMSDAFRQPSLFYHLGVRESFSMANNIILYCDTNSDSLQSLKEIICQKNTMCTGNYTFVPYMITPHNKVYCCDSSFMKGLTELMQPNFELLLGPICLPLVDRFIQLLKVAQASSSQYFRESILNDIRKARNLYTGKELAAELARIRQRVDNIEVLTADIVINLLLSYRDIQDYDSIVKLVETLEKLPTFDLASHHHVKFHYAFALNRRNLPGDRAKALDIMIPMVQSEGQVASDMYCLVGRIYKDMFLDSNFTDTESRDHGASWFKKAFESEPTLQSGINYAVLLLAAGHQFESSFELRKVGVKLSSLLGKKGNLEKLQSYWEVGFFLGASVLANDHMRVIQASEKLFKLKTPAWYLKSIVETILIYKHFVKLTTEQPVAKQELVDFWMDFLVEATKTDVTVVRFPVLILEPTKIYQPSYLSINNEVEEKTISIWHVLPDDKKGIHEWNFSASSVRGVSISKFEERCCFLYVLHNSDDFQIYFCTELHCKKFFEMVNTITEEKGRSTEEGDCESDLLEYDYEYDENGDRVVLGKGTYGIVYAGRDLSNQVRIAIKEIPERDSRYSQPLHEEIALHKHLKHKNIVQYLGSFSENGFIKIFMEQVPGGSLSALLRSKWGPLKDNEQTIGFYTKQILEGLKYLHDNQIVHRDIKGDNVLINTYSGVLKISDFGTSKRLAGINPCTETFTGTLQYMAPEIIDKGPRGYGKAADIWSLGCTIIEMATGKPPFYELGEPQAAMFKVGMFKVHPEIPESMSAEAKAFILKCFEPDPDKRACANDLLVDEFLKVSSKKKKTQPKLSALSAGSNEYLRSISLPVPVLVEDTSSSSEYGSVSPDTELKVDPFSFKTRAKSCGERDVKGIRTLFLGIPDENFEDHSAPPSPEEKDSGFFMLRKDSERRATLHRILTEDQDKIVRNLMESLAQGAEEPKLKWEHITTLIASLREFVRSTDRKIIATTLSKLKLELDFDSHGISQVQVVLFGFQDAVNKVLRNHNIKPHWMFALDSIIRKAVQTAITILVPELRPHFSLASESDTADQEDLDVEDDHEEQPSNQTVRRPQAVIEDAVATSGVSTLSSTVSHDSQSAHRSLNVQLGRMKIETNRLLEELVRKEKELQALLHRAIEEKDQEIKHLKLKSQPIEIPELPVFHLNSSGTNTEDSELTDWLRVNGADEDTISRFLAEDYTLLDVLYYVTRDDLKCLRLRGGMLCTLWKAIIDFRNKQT

[4] = target: T2, Lymphokine-activated killer T-cell-originated protein kinase (Homo sapiens) (UniProt Q96KB5)
T2 sequence (whole entry): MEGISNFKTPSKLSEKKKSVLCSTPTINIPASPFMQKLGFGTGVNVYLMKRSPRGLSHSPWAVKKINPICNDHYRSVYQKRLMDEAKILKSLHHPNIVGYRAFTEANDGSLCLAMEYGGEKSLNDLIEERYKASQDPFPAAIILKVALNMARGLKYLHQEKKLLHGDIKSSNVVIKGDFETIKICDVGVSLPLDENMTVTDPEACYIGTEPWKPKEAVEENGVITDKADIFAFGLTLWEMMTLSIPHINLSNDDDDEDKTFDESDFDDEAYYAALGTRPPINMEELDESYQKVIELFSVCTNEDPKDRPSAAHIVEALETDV

[5] = target: Glycogen synthase kinase-3 beta (Homo sapiens, UniProt P49841)
Chain of Glycogen synthase kinase-3 beta (P49841 whole entry, looked up): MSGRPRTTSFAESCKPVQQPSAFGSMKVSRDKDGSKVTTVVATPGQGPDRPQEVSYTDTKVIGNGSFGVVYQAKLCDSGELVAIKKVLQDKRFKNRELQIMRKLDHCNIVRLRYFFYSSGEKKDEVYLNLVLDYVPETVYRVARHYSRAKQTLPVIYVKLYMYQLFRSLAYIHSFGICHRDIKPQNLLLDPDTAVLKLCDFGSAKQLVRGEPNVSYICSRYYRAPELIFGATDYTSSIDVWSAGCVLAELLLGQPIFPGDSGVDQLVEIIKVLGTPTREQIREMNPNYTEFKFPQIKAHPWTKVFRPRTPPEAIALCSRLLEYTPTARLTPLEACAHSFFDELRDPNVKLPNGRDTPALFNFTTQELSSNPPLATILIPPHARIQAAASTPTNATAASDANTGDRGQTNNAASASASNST

[6] = target: T3, Calcium/calmodulin-dependent protein kinase type IV (Homo sapiens) (UniProt Q16566)
T3 sequence (whole entry): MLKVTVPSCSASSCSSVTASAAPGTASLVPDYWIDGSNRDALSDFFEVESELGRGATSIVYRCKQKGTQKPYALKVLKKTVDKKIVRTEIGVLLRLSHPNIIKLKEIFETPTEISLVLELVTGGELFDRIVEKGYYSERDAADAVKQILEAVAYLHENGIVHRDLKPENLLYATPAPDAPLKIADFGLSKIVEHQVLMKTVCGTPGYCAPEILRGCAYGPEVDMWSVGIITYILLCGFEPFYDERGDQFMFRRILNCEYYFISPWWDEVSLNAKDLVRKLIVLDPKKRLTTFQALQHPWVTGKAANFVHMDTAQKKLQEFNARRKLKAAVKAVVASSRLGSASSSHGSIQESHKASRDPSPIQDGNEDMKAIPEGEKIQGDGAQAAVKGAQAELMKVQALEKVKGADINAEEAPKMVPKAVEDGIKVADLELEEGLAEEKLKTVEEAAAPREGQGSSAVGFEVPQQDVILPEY

[7] = target: Serine/threonine-protein kinase PAK 4 (Homo sapiens) (UniProt O96013)
Chain of Serine/threonine-protein kinase PAK 4 (Homo sapiens) (O96013 whole entry, looked up): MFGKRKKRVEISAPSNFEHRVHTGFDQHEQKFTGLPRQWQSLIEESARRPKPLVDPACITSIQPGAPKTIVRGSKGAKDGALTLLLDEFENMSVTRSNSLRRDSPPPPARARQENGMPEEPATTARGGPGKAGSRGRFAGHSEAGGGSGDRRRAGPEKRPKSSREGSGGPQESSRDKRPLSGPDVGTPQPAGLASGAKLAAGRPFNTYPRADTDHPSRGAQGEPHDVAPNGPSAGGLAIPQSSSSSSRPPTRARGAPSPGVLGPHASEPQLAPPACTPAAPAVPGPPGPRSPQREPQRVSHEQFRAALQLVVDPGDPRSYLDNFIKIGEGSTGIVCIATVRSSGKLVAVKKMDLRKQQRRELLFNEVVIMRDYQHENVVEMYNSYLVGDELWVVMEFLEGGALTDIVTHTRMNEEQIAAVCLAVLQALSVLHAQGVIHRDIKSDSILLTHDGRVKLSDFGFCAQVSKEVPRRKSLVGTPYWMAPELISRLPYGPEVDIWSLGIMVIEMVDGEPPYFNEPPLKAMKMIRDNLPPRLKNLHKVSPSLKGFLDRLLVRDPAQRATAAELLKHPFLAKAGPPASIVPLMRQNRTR

[8] = target: T4, Serine/threonine-protein kinase Nek2 (Homo sapiens) (UniProt P51955)
T4 sequence (whole entry): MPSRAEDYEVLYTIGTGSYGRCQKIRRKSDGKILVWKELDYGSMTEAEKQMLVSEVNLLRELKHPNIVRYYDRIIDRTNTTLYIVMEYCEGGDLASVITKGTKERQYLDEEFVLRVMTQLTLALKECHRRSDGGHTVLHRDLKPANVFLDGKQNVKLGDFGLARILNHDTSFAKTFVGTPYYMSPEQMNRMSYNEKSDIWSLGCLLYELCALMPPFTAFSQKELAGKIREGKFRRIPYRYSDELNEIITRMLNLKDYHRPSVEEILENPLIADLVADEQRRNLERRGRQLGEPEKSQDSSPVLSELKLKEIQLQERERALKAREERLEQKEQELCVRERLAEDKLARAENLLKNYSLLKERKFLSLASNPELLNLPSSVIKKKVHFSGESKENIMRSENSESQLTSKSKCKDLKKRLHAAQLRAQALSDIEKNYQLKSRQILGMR

[9] = target: Calcium/calmodulin-dependent protein kinase type 1D (Homo sapiens) (UniProt Q8IU85)
Chain of Calcium/calmodulin-dependent protein kinase type 1D (Homo sapiens) (Q8IU85 whole entry, looked up): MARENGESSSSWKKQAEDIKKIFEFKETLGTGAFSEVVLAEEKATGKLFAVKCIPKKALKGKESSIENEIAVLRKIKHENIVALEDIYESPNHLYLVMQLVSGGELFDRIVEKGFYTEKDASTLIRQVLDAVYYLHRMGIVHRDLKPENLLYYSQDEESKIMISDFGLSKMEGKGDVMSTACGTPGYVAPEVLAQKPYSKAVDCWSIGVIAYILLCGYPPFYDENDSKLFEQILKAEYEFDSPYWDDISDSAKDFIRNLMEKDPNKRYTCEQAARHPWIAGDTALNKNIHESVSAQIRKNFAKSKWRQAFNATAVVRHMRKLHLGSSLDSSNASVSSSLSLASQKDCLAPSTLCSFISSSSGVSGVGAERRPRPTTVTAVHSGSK

[10] = target: Ribosomal protein S6 kinase alpha-3 (Homo sapiens) (UniProt P51812)
Chain of Ribosomal protein S6 kinase alpha-3 (Homo sapiens) (P51812 whole entry): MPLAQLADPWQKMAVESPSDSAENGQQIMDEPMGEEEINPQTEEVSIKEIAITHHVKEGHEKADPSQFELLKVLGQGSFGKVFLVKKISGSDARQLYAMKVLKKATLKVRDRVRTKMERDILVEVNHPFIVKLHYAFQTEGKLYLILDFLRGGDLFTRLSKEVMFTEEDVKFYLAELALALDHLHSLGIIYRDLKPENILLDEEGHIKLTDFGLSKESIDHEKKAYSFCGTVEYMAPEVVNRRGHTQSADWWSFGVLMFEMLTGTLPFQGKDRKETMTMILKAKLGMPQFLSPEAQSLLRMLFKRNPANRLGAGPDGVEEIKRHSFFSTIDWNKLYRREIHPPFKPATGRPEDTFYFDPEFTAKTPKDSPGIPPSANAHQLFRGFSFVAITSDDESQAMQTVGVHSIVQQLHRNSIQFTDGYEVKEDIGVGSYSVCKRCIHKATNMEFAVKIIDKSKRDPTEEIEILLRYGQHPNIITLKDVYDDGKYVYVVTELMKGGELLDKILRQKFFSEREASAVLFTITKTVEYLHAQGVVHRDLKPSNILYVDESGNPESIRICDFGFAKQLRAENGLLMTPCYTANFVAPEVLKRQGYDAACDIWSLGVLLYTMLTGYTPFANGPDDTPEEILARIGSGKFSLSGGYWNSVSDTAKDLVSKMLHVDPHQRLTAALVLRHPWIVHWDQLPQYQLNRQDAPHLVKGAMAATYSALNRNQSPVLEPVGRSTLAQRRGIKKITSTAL

Chain of Serine/threonine-protein kinase pim-2 (Q9P1W9 whole entry, looked up): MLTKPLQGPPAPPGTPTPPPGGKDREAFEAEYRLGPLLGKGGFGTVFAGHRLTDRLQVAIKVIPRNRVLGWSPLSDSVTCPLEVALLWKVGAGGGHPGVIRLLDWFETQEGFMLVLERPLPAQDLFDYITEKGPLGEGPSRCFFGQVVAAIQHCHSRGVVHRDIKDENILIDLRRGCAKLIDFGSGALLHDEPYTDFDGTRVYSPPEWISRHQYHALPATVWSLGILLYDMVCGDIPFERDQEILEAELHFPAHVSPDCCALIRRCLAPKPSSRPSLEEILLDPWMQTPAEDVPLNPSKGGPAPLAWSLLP
Chain of Mitogen-activated protein kinase 6 (Homo sapiens) (Q16659 whole entry): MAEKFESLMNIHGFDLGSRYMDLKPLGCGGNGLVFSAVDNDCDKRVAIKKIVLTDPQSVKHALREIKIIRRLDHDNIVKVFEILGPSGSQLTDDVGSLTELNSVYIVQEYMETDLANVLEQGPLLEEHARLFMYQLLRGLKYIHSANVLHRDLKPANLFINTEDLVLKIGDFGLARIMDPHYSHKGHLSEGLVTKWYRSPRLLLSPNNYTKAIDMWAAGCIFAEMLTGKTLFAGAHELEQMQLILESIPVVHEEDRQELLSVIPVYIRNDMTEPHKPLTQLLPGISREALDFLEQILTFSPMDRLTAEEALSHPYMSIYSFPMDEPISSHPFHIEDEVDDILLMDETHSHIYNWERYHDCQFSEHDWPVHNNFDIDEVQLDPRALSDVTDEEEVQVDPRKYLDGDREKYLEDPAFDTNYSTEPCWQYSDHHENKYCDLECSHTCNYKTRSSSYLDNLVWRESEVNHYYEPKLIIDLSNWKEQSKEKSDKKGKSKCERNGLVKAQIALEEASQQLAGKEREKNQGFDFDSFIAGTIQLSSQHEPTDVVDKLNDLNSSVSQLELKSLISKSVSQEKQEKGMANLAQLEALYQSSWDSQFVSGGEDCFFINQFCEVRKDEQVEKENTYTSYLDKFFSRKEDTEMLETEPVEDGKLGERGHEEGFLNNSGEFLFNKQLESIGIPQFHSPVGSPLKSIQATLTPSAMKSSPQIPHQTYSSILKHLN

COc1cc(OC)c(/C=C2\C(=O)Nc3ccccc32)c(OC)c1
ΔTm [1]: 0.5 °C | ΔTm [2]: -0.2 °C | ΔTm [3]: 0 °C | ΔTm [4]: 0.5 °C | ΔTm [5]: 0.4 °C | ΔTm [6]: -0.1 °C | ΔTm [7]: 0.1 °C | ΔTm [8]: 0.4 °C | ΔTm [9]: -0.2 °C | ΔTm [10]: -0.2 °C

O=c1c(O)c(-c2ccc(O)c(O)c2)oc2cc(O)cc(O)c12 [QUERCETIN]
ΔTm [1]: 8.6 °C | ΔTm [2]: 0.8 °C | ΔTm [3]: 3.4 °C | ΔTm [4]: 0.4 °C | ΔTm [5]: 7.8 °C | ΔTm [6]: 6.7 °C | ΔTm [7]: 2.3 °C | ΔTm [8]: 3.4 °C | ΔTm [9]: 2.9 °C | ΔTm [10]: 5.6 °C

Brc1c(Br)c(Br)c2[nH]nnc2c1Br [TETRABROMOBENZOTRIAZOLE]
ΔTm [1]: 4.2 °C | ΔTm [2]: -0.2 °C | ΔTm [3]: 1.9 °C | ΔTm [4]: -0.3 °C | ΔTm [5]: 2.4 °C | ΔTm [6]: 0.4 °C | ΔTm [7]: -0.1 °C | ΔTm [8]: -0.1 °C | ΔTm [9]: -1.6 °C | ΔTm [10]: 1.5 °C

CCOC(=O)c1c(C)[nH]c(/C=C2\C(=O)Nc3ccccc32)c1C
ΔTm [1]: 0.1 °C | ΔTm [2]: -0.1 °C | ΔTm [3]: -1.4 °C | ΔTm [4]: 0.3 °C | ΔTm [5]: 2.3 °C | ΔTm [6]: -0.4 °C | ΔTm [7]: 0.9 °C | ΔTm [8]: 0.5 °C | ΔTm [9]: 0 °C | ΔTm [10]: 3 °C

COc1cc(O)c2c(c1)oc(=O)c1c3cc(O)c(O)cc3oc21 [WEDELOLACTONE]
ΔTm [1]: 2.2 °C | ΔTm [2]: 1.5 °C | ΔTm [3]: 0.8 °C | ΔTm [4]: 0 °C | ΔTm [5]: -0.4 °C | ΔTm [6]: 0.8 °C | ΔTm [7]: 1.6 °C | ΔTm [8]: 2 °C | ΔTm [9]: 1.1 °C | ΔTm [10]: 1.8 °C

C[S+]([O-])c1ccc(-c2nc(-c3ccc(F)cc3)c(-c3ccncc3)[nH]2)cc1 (stereo not given) [SB-203580]
ΔTm [1]: 0 °C | ΔTm [2]: 0 °C | ΔTm [3]: 0.3 °C | ΔTm [4]: 0.2 °C | ΔTm [5]: 3.5 °C | ΔTm [6]: 0 °C | ΔTm [7]: 0.1 °C | ΔTm [8]: 0.3 °C | ΔTm [9]: -0.2 °C | ΔTm [10]: 0.3 °C

CCN1/C(=C/C(C)=O)Sc2ccc(OC)cc21
ΔTm [1]: 3.1 °C | ΔTm [2]: 0 °C | ΔTm [3]: 0.4 °C | ΔTm [4]: 1.1 °C | ΔTm [5]: 1.4 °C | ΔTm [6]: 0.8 °C | ΔTm [7]: 0.9 °C | ΔTm [8]: 0.8 °C | ΔTm [9]: 0 °C | ΔTm [10]: 0.4 °C

N#CCCc1ccc2c(c1)-c1[nH]c3ccc([N+](=O)[O-])cc3c1CC(=O)N2 [ALSTERPAULLONE 2]
ΔTm [1]: 1.4 °C | ΔTm [2]: 1.7 °C | ΔTm [3]: 1.8 °C | ΔTm [4]: 0 °C | ΔTm [5]: 11.8 °C | ΔTm [6]: 0.4 °C | ΔTm [7]: 4.3 °C | ΔTm [8]: 2.2 °C | ΔTm [9]: 0.6 °C | ΔTm [10]: 4.1 °C

O=c1c2ccccc2[nH]c(=S)n1CCN1CCC(=C(c2ccc(F)cc2)c2ccc(F)cc2)CC1 [DIACYLGLYCEROL KINASE INHIBITOR II]
ΔTm [1]: 1.4 °C | ΔTm [2]: -0.1 °C | ΔTm [3]: -0.7 °C | ΔTm [4]: 0.1 °C | ΔTm [5]: 1.9 °C | ΔTm [6]: 0.2 °C | ΔTm [7]: 1.3 °C | ΔTm [8]: 1.5 °C | ΔTm [9]: 0.8 °C | ΔTm [10]: 1.2 °C

O=C1NC(=O)c2c1c1c3ccccc3[nH]c1n1cncc21 [ISOGRANULATIMIDE]
ΔTm [1]: 8 °C | ΔTm [2]: 1.2 °C | ΔTm [3]: 2.6 °C | ΔTm [4]: 1 °C | ΔTm [5]: 8.8 °C | ΔTm [6]: 6 °C | ΔTm [7]: 3.8 °C | ΔTm [8]: 2.4 °C | ΔTm [9]: 1 °C | ΔTm [10]: 5.2 °C

COc1cc(/C=C/C(=O)CC(=O)/C=C/c2ccc(O)c(OC)c2)ccc1O [CURCUMIN]
ΔTm [1]: 2.9 °C | ΔTm [2]: 1.8 °C | ΔTm [3]: 3.1 °C | ΔTm [4]: 0.7 °C | ΔTm [5]: 3.4 °C | ΔTm [6]: 2.1 °C | ΔTm [7]: 3 °C | ΔTm [8]: 1.1 °C | ΔTm [9]: 2 °C | ΔTm [10]: 3.4 °C

COc1ccc(CNc2nc(N(CCO)CCO)nc3c2ncn3C(C)C)cc1
ΔTm [1]: 0.3 °C | ΔTm [2]: -0.4 °C | ΔTm [3]: 2 °C | ΔTm [4]: 0.7 °C | ΔTm [5]: 0.8 °C | ΔTm [6]: 0.4 °C | ΔTm [7]: 1.7 °C | ΔTm [8]: 1 °C | ΔTm [9]: 0.3 °C | ΔTm [10]: 1.3 °C
